{"source": "patent US7265119B2", "about": "“Tartrate salts of 5,8,14-triazatetracyclo[10.3.1.02,11.04.9]-hexadeca-2(11),3,5,7,9-pentaene and pharmaceutical compositions thereof” (Pfizer Inc, priority 2001, dated 2007)", "format_in_all_cases": "physicochemical", "key": {"hygroscopicity": {"assay": "hygroscopicity", "description": "Further, the Form B forms orthorhombic crystals belonging to the P2(1)2(1)2(1) space group. Form B is further characterized in having an onset of melting at about 215° C. as measured by differential scanning calorimetry at a heating rate of 5 degrees per minute. […] In addition, Form B has a hygroscopicity of approximately 0.2% at 90% relative humidity."}, "aqueous solubility": {"assay": "aqueous solubility", "conditions": "water, pH 3.3, water"}, "[1]": {"assay": "stability of the hydrate under vacuum at moderate temperature", "conditions": "for stability (in words): ambient conditions / low humidity", "excerpt": "The L-tartrate salt exists as three possible forms: two anhydrous forms and one hydrate form."}, "[2]": {"assay": "native pH in aqueous solution"}, "[3]": {"assay": "polymorph stability / interconversion on exposure to relative humidity", "conditions": "for stability at RH greater than 60%: experiments at 75% and 87% relative humidity", "excerpt": "Upon filtering off the Form C which precipitates out as a white salt, the Form C salt may be air dried.\nExperiments at 23% and 43% RH have verified this phenomena."}, "[4]": {"assay": "solid-state stability and excipient compatibility"}}, "note": "Where a name gives a salt, the structure may show the parent alone."}
{"smiles": "O=C(O)C(O)C(O)C(=O)O.c1cnc2cc3c(cc2n1)C1CNCC3C1", "note": "[Form A′, D-tartrate salt of 5,8,14-triazatetracyclo[10.3.1.0^2,11.0^4,9]-hexadeca-2(11),3,5,7,9-pentaene]", "values": [{"measurement": "hygroscopicity compared with the corresponding Form A, B or C of the L-tartrate salt", "setting": "hygroscopicity", "result": "the same"}]}
{"smiles": "c1cnc2cc3c(cc2n1)C1CNCC3C1", "note": "[Form B, L-Tartrate Salt of 5,8,14-Triazatetracyclo[10.3.1.0^2,11.0^4,9]-hexadeca-2(11),3,5,7,9-pentaene (Anhydrous Polymorph, Form B)]", "values": [{"measurement": "solubility", "setting": "aqueous solubility", "result": "~156", "unit": "mg/mL"}, {"measurement": "hygroscopicity", "setting": "hygroscopicity; at 90% relative humidity", "result": "approximately 0.2%"}, {"measurement": "stability (in words)", "setting": "[1]", "result": "most stable of the polymorphs at low humidity"}, {"measurement": "native pH in aqueous solution", "setting": "[2]", "result": "about 3.3"}, {"measurement": "stability at RH greater than 60%", "setting": "[3]", "result": "relatively stable over a several month period"}, {"measurement": "time for conversion of Form B to Form C", "setting": "[3]; exposed to 100% RH", "result": "≤ 2", "unit": "days"}]}
{"smiles": "O=C(O)C(O)C(O)C(=O)O.c1cnc2cc3c(cc2n1)C1CNCC3C1", "note": "[Form C, L-Tartrate Saft Form C of 5,8,14-Triazatetracyclo[10.3.1.0^2,11.0^4,9]-hexadeca-2(11),3,5,7,9-pentaene (Form C)]", "values": [{"measurement": "time the hydrate maintains its one equivalent of water under vacuum", "setting": "[1]; 45° C. vacuum oven", "result": "≥ 24", "unit": "h"}, {"measurement": "stability (in words)", "setting": "[1]", "result": "relatively stable under ambient conditions"}, {"measurement": "time after which the hydrate loses water and converts to anhydrous Form B", "setting": "[1]; under vacuum at moderate temperatures", "result": "≥ 48", "unit": "h"}, {"measurement": "stability at RH greater than 60%", "setting": "[3]", "result": "relatively stable over a several month period"}, {"measurement": "behaviour on exposure to less than 50% RH", "setting": "[3]; less than 50% RH, experiments at 23% and 43% RH", "result": "more slowly dehydrate"}]}
{"smiles": "c1cnc2cc3c(cc2n1)C1CNCC3C1", "note": "[L-tartrate salt, L-tartrate salt of 5,8,14-triazatetracyclo[10.3.1.0^2,11.0^4,9]-hexadeca-2(11),3,5,7,9-pentaene]", "values": [{"measurement": "solid-state stability", "setting": "[4]", "result": "high solid-state stability"}, {"measurement": "inertness towards excipients", "setting": "[4]; common excipients", "result": "relative inertness towards common excipients"}, {"measurement": "hygroscopicity (in words)", "setting": "hygroscopicity", "result": "very slightly hygroscopic"}]}
